This note sets out measurements from a melting point compilation (Tetko et al.).

The structures appear in SMILES notation.

For `COC(=O)c1ccc(OC)c(OC)c1Cl`, the melting point (in general, the temperature, or range, at which the solid turns liquid) is 46 to 48 °C. The compound `O=C1C(c2cccc(C3=[N+]([O-])c4cc([N+](=O)[O-])ccc4C3=O)c2)=[N+]([O-])c2cc([N+](=O)[O-])ccc21` showed a melting point of 287 °C. Regarding `CCC(=O)OC(C)c1ccccc1` (configuration not stated), the melting point was -60 °C. Take `O=[N+]([O-])c1ccc2c(c1)OCCOCCOCCOCCOCCO2`: the melting point is 85 to 88 °C. `C[C@@](O)(CC(=O)O)C(=O)O` gave a melting point of 107 to 111 °C. Compound `O=C(c1noc(-c2ccc([N+](=O)[O-])cc2)c1S(=O)(=O)c1ccccc1)c1cccc2ccccc12` gave a melting point of 160 °C.

As for `N#CCS(=O)(=O)c1ccc(Cl)cc1Cl`, the melting point fell in the range of 118 to 121 °C.

The compound `CC1C(=O)C23C4CC5C(C)(CO)CCCC56COC(CC1C2OC(C)(C)O4)C63` (configuration not stated) had a melting point of 220 °C.

Take `Cc1[nH]c2nc(C(F)(F)F)nn2c(=O)c1Cl`: the melting point came out at 215 °C. On to `C[Si](C)(C)C1=CC2(CCCCC2)CC1=O`, for which the melting point worked out at 56 °C.

`Cc1ncc(C=O)n1C` had a melting point of 76 to 77 °C. In turn, `COC(=O)CS(C)(=O)=O` gave a melting point of 62 to 63 °C. `NNC(=O)c1cccc(N)c1`: the melting point was 92 °C. Regarding `O=S(=O)(CS(=O)(=O)c1ccccc1)c1ccccc1`, the melting point lay within 117 to 123 °C. Take `CCCCC(=O)OC1(C(=O)CO)CCC2C3CCC4=CC(=O)CCC4(C)C3C(O)CC21C` (configuration not stated): the melting point came to 218 °C. `CC(C=CC=C(C)C=CC1(O)C(C)(C)CCCC1(C)O)=CC=CC=C(C)C=CC(=O)O` (configuration not stated): the melting point came to 213 °C. For `O=Cc1ccccc1O`, the melting point was -3.5 °C.

On to `C#CC[C@H](NC(=O)OCC1c2ccccc2-c2ccccc21)C(=O)O`, for which the melting point was found to be 175 °C. `c1ccc(Cc2nc3ccccc3nc2Cc2ccccc2)cc1` came in with a melting point of 118 °C. `CC(C)NCC(O)COc1ccc(O)cc1` (configuration not stated) showed a melting point of 128 °C.

For `O=[N+]([O-])C=Cc1cc(Cl)ccc1O`, the melting point lay within 148 to 154 °C. `CCOC(=O)COc1ccc2c(=O)cc(-c3ccccc3)oc2c1` had a melting point of 124 °C.

In turn, `Clc1ccc(N2CCNCC2)cc1Cl` registered a melting point of 63 °C. `Nc1c(I)cc(I)c(C(=O)O)c1I` returned a melting point of 196 to 199 °C.

`O=C=Nc1ccc(Cl)c(C(F)(F)F)c1` had a melting point of 35 to 36 °C. `O=CN(C=O)C(N(C=O)C=O)N(C=O)C=O` gave a melting point of 145 °C. The compound `Brc1nc2ccccc2[nH]1` gave a melting point of 200 °C. For `NC(=O)c1ccc(F)c(C(F)(F)F)c1` the value was 84.5 °C. For the compound `CSC(Cl)=NS(=O)(=O)c1ccc(C)cc1`, the melting point is 90 to 91 °C.

On to `Cc1ccccc1NC(=S)c1cc(C(C)(C)C)c(O)c(C(C)(C)C)c1`, for which the melting point lay in the range of 257 to 258 °C. `CCOP(=O)(OCC)ON1C(=O)c2cccc3cccc(c23)C1=O`: the melting point came out at 177 °C.

As to `CCOC(=O)c1c(C)cc(O)cc1O`, the melting point came out at 132 °C. Compound `O=C(NCCCCCCO)OCC1c2ccccc2-c2ccccc21` showed a melting point of 119 to 120 °C. For `C=CCOC(=O)N1CCN(C(=O)OCC2c3ccccc3-c3ccccc32)C(C(=O)O)C1` (configuration not stated) the value was 63 °C.

As for `O=C(O)CS`, the melting point was -11 °C. The compound `Cc1ccc2oc(CCC(C)(O)c3ccccc3)c(-c3ccc(C)o3)c2c1` (configuration not stated) returned a melting point of 85 °C. For `CCOC(=O)C1N=C(c2ccccc2F)c2cc(Cl)ccc2NC1=O` (configuration not stated), the melting point came out at 194 °C.

Compound `CCNC(C)CC` (configuration not stated) yielded a melting point of -104 °C. On to `O=C(O)c1cccc(N2CCCCC2)n1`, for which the melting point lay in the range of 98 to 101 °C. Take `Nc1cccc(Cn2ccnc2)c1`: the melting point lay within 72 to 74 °C.

In the case of `Brc1n[nH]c(Br)c1Br`, the melting point was in the range of 190 to 192 °C. With `ClCc1cccc(-c2ncccn2)c1`, the melting point lay within 68 to 70 °C. For `O=C1c2ccccc2C(=O)N1c1cn[nH]c1` the value was 259 to 260 °C. For `COC(C)(C)OC` the value was -47 °C.

`CN(C)C(=S)SSC(=S)N(C)C` gave a melting point of 156 °C.

Take `COc1ncnc(NS(=O)(=O)c2ccc(N)cc2)c1OC`: the melting point came to 192 °C. `CN(C)CCc1c[nH]c2ccc(O)cc12`: the melting point is 146 °C. The compound `CC12CCC(C(=CCC=C3C(=O)C4(C)CCC3C4(C)C)C1=O)C2(C)C` gave a melting point of 265 to 267 °C.

For the compound `O=C(O)CC1CCCCC1`, the melting point is 33 °C.

The compound `O=[N+]([O-])c1cccc(OCCBr)c1` yielded a melting point of 39 °C. Compound `O=C(O)c1c(F)cccc1I` showed a melting point of 121 to 126 °C. The result for `COC(=O)c1ccccc1S(=O)(=O)NC(=O)Nc1nc(C)nc(OC)n1` reads 162 °C; that for `Cc1ccc2cc3c(cc2n1)CCC(C)N3` (configuration not stated), 171 °C. As for `O=C1C=C(Cl)C(=O)C(Cl)=C1`, the melting point turned out to be 123 °C. Regarding `Nc1ccc2cc(C(=O)O)ccc2c1`, the melting point is 222 to 227 °C. `C=CCCCCCCCCC=O`: the melting point turned out to be 7 °C.

On to `CCSc1nc(N)nc(C(C)C)n1`, for which the melting point is 115 to 117 °C.

`COc1ccc2cc([N+](=O)[O-])ccc2c1` yielded a melting point of 134 °C. For `CC(=O)C(C(C)=O)=C1SCCS1`, the melting point was 91 °C.

Turning to `CC(C)(C)OC(=O)N1CCN(Cc2ccc(C=O)cc2)CC1`, the melting point was 57 to 59 °C. Compound `Cc1nc(-c2ccccc2)sc1Br` displayed a melting point of 60 °C. Take `Oc1cc(C(F)(F)F)nc2c(Cl)cccc12`: the melting point was found to be 139 °C. As for `[O-][N+](=Nc1ccc(N=Nc2ccccc2)cc1)c1ccc(N=Nc2ccc(N=Nc3ccccc3)cc2)cc1`, the melting point was 253 °C. The result for `O=C(O)C(O)C(O)C(=O)Nc1ccc(Cl)cc1` (single isomer, unassigned; (+)) reads 193 to 195 °C.

For the compound `C=C(C)c1ccc(C(C)C)cc1`, the melting point is -30.6 °C. As to `CCNc1cc(O)ccc1C`, the melting point came to 88 °C. Regarding `Cc1cc(C)cc(O[Si]23OCCN(CCO2)CCO3)c1`, the melting point amounted to 220 °C.

Compound `COc1ccc2c(c1)CC1(CCC(c3ccc(C(C)(C)C)cc3)CC1)C2` (configuration not stated) returned a melting point of 84 to 85 °C. Consider `Cc1cc(C)n2nc(SCc3ccccc3)nc2n1`, for which the melting point was 135 to 136 °C. For `OCc1cccc2ccsc12` the value was 76.5 to 78 °C; for `Cc1nccc(-c2cccc(Br)c2)n1`, 66 to 69 °C; for `CCCCCCCCC=O`, -18 °C. In turn, `C=CCn1c(SC)nc2nc(SC)n(C)c2c1=O` yielded a melting point of 111 to 113 °C. Compound `CCc1c(C)c[nH]c1C` returned a melting point of 0 °C. Turning to `O=[N+]([O-])c1cc(O)ccc1I`, the melting point is 153 to 159 °C. With `O=Cc1ccc(-c2cc(C(F)(F)F)cc(C(F)(F)F)c2)o1`, the melting point is 109 to 110 °C. Consider `[O-][N+]1=C(c2ccccn2)/C(=N\O)c2ccccc21`, for which the melting point lay in the range of 215 to 217 °C. Take `C=C1C(=O)C23C(OC(C)=O)CC4C(C)(C)CCC(OC(C)=O)C4(C)C2C(OC(C)=O)CC1(OC(C)=O)C3OC(C)=O` (configuration not stated): the melting point is 280 °C.

In the case of `COc1c(OC)c(OC(C)=O)c2ccccc2c1OC(C)=O`, the melting point turned out to be 138 °C.

As for `O=C(O)C1CNC1`, the melting point is 250 to 292 °C. Compound `O=C(O)C1Cc2ccccc2O1` (configuration not stated) returned a melting point of 117 to 118 °C. With `Cc1c(Cl)ccc(O)c1Cl`, the melting point amounted to 58 °C.

For the compound `O=[N+]([O-])c1ccc(Sc2ccccc2)cc1`, the melting point worked out at 56 °C. On to `O=C(O)CCP(=O)(O)O`, for which the melting point fell in the range of 165 to 166 °C. For `COC(=O)c1ccc(N2CCN(C(=O)OC(C)(C)C)CC2)cc1` the value was 166 to 167 °C; for `C#CCCCCCCCC`, -44 °C; for `CC(C(O)c1ccc(O)cc1)N1CCC(Cc2ccccc2)CC1` (configuration not stated), 114 °C. In the case of `CC1=NN(c2ccccc2)C(=O)C1=CC1C(=O)N(c2ccccc2)N=C1C` (configuration not stated), the melting point lay within 180 to 181 °C.

Consider `Cc1ccccc1C#N`, for which the melting point was -13.5 °C. The result for `O=C(C=NNc1ccccc1)c1ccc(C(=O)C=NNc2ccccc2)cc1` reads 210 °C; that for `O=[N+]([O-])c1ccc2ccccc2c1`, 79 °C. The compound `CC(=O)OC1C2=C(C(=O)C(OC(C)=O)C3(CC3C)C2=O)C2(C)CCCC(C)(C)C2C1O` (configuration not stated) had a melting point of 172 to 173 °C. `Cc1cc(C)c(CC(=O)c2oc3ccccc3c2NC(=O)c2ccccc2)c(C)c1` registered a melting point of 198 to 199 °C. Compound `c1ccc(P(CCP(c2ccccc2)c2ccccc2)c2ccccc2)cc1` displayed a melting point of 141 °C. In turn, `CC1=CC=C(C(C)C)CC1` showed a melting point of -31.1 °C. For `CCOC(=O)Cn1cnc(Cl)c1Cl` the value was 65 to 67 °C; for `CCCCCCCCCCC(O)CC` (configuration not stated), 32 °C; for `Cc1cccc(NC=C2C(=O)NN=C2c2c(O)c3ccccc3n(C)c2=O)c1`, 264 °C. For `c1ccc(CP(c2ccccc2)c2ccccc2)cc1` the value was 75 °C; for `CCOC(=O)c1nn(-c2ccc(C)cc2)c(C)c1C(=O)C1=NOC2C(=O)N(c3ccc(C(=O)O)cc3)C(=O)C12` (configuration not stated), 281 °C. Consider `Cc1cc(C)c(C(=O)P(=O)(c2ccccc2)c2ccccc2)c(C)c1`, for which the melting point was determined as 90 °C. For `Nc1ncc2nc[nH]c2n1` the value was 280 to 284 °C.

The compound `Cn1ccc2cc(C=O)ccc21` displayed a melting point of 84 to 86 °C.

`Cc1cc2c(nn1)CCc1nonc1-2` registered a melting point of 143 to 145 °C.

In the case of `O=[N+]([O-])c1cn[nH]c1`, the melting point worked out at 161 °C. `CCCCCCC(=O)CCCCC` had a melting point of 10 °C. As to `Cc1ccc(Oc2cccc(F)c2C#N)cc1`, the melting point lay within 93 to 95 °C.
